Molecular target: T1, mGluR2 (Homo sapiens, UniProt Q14416)
T1 construct: expressed in transfected cells
Assay: [3H]LY341495 binding displacement at mGluR2
Conditions: radioligand [3H]LY341495, cells expressing human mGluR subtypes, read-out: Ki for reversal of [3 H] LY341495 binding
From the text: (D. D. Schoepp, et al., Neuropharmacol., 1996, 35, 1661-1672 and 1997, 36, 111).
(LY341495 is described in Ornstein et al., J. Med. Chem., 1998, 41, 346-357 and J. Med. Chem., 1998, 41, 358 to 378).

T1 sequence (Q14416 19-872): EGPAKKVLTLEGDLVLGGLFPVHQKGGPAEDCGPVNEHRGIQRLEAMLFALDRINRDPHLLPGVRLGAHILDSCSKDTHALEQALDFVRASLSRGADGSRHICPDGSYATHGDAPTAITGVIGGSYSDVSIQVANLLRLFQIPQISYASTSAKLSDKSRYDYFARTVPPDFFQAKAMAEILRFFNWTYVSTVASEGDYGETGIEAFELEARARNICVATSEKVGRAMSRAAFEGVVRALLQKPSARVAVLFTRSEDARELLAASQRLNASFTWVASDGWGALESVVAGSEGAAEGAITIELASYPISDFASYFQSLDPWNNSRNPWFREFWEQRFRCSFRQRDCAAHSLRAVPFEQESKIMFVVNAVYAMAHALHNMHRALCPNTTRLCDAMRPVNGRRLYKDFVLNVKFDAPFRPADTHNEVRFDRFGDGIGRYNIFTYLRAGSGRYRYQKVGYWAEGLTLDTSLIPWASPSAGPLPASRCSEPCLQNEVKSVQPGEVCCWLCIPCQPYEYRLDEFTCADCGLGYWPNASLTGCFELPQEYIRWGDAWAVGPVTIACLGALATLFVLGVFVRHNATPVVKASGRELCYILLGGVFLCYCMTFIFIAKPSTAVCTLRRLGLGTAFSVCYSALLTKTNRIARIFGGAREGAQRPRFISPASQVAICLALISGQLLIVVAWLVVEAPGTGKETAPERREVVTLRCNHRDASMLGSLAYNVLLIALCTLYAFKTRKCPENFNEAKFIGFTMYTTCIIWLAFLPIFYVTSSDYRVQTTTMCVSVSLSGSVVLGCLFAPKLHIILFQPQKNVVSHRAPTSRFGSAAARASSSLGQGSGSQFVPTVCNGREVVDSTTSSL

| Ki [nM] | Structure (SMILES) |
| --- | --- |
| 2640 | C[C@@H]1[C@H](C(=O)O)[C@H]1[C@H](N)C(=O)O [(2S,1′S,2′S,3′S)-2′-carboxy-3′methylcyclopropylglycine] |
| 100 | C[C@H]1[C@H](C(=O)O)[C@H]1[C@H](N)C(=O)O [Example 1, (2S,1′S,2′S,3′R)-2-(3′-Methyl-2′-carboxycyclopropyl)glycine] |
